System: Human sebocytes
Assay: Neutral fat detection (Nile red staining, fluorescence intensity) in human sebocytes
Format: cell-based
Method: Human sebocytes (Cat. No. 36079-01, Celprogen, Torrance, Calif., USA) were cultured in Dulbecco's Modified Eagle Medium (DMEM): Nutrient Mixture F-12 (DMEM/F12) purchased from Thermo Fisher Scientific Limited (Barrington, Ill., USA), 10% fetal bovine serum (FBS) purchased from Gibco, Grand Island, N.Y., USA and penicillin/streptomycin (100 IU/50 […]), incubated at 37° C. in the 5% CO2 atmosphere.
Human sebocytes were implanted in 24- or 96-well plates. After 24 hours of culture, the cells were divided into a negative control group, a positive control group and an experimental group. […] The treated human sebocytes were cultured for two days. Human sebocytes were fixed with 4% formaldehyde at room temperature. After 60 minutes of fixation, the cells were washed with PBS and stain with Nile Red solution (1 μg/ml in PBS) at 37° C. for 15 minutes. Next, the cells were washed and observed under a fluorescent microscope. Fluorescence intensity was measured with fluorometer Spectra Max i3.

[1] = 0.1 mM LA + 50 μg/mL peptide vs LA alone, FIG. 1E

Row | Molecule | fluorescence intensity (lipid content of sebocytes, Nile red) (50 μg/mL peptide, negative control about 1.0, FIG. 2E) | fluorescence intensity (lipid content of sebocytes, Nile red) (100 μg/mL peptide, negative control about 1.0, FIG. 2E) | fluorescence intensity (lipid content of sebocytes, Nile red) (0.1 mM LA + 50 μg/mL lactoferrin peptide, negative control about 1, positive control (LA) about 3.44, FIG. 1E) | lipid content increase compared with the positive control group (LA) [1] | promoting and/or increasing the content of lipid synthesized by the induction of LA (significance vs positive control) [1] | fluorescence intensity (lipid content of sebocytes, Nile red) (400 μg/mL peptide (so in the source), negative control about 1.0, FIG. 2E) | concentration dependence of the lipid content increase (50, 100, 200 μg/mL peptide, FIG. 2) | lipid content compared with the negative control group (0.1 mM LA alone vs negative control, FIG. 1E) | fluorescence intensity (lipid content of sebocytes, Nile red) (0.1 mM linoleic acid (LA) alone, positive control group, negative control about 1, FIG. 1E, cultured two days)
1 | Lf13: Lactoferrin-derived peptide purchased from DgPeptides; presumably the derived peptide comprising the amino acid sequence of SEQ ID NO: 01 (APRKNVRWCTISQ; Lactoferrin derived peptide) | about 1.29 | about 1.44 | about 4.67 | 40% | significant difference | about 1.54 | dose-dependent manner | – | –
2 | CCCCC/C=C\C/C=C\CCCCCCCC(=O)O [LA, linoleic acid, reference compound] | – | – | – | – | – | – | – | more than 3 times | about 3.44

Reference: US20230002449A1, “DERIVED PEPTIDE OF LACTOFERRIN AND METHOD THEREOF FOR PROMOTING AND/OR INCREASING LIPID SYNTHESIS” (RENORIGIN INNOVATION INSTITUTE CO., LTD., priority 2021, published 2023)
